In patent publication US20120039917A1, “IMMUNO[…]” (priority 2008, published 2012):

Assays:
[1] = Sensitivity of cell types to PXD, viability by AV/PI staining; format: cell-based; conditions: human, normal bone marrow cells; normal BM, 10 μM PXD for 24 h; read-out: [% viable blasts after PXD exposure]/[% viable blasts after 0.1% DMSO exposure]
Method: (§1) FIG. 6. Sensitivity of different cell types to PXD. Different cell types were incubated with 10 μM PXD for 24 h and viability was determined by AV/PI staining and reported as [% viable blasts after PXD exposure]/[% viable blasts after 0.1% DMSO exposure]. Percentage values are as follows: AML-derived HL60: 16±5 and HL60p°: 54±6, ALL-derived MOLT-4: 44±4, MM-derived U226: 59±6 and RPMI 8226: 12±4, primary AML blasts: 64±5, primary ALL blasts: 23±4, normal BM: 89±5, proliferating T cells: 69±4, resting T cells: 98±6. Results from cell lines are presented as the average±SEM of at least 3 separate experiments, results from bone marrow samples are presented as the average±SD of single experiments performed in duplicate.
Bone marrow samples from AML (n=22) and ALL (n=8) patients, containing more than 80% blasts, were selected from the tissue bank. […] was determined by AV/PI staining as [% viable blasts after PXD treatment]/[% viable blasts in control sample].
Cells were centrifuged at 1400 rpm in a Multifuge 3 s (Heraeus) for 4 min at room temperature, washed in phosphate buffered saline solution, pH 7.3 (PBS) and resuspended in Annexin V binding buffer. […] Staining was analyzed by flow cytometry using a Becton Dickinson Canto II FACS analyser using FlowJo (TreeStar) software.

MM-derived U226 = assay: as above; format: cell-based; conditions: Homo sapiens; U226, 10 μM PXD for 24 h; read-out: [% viable blasts after PXD exposure]/[% viable blasts after 0.1% DMSO exposure]
Method: as §1
(§2) Cell lines were grown in RPMI-1640 medium (GIBCO-BRL, Grand Island, N.Y.) supplemented with 5% (v/v) fetal calf serum, 2 mM […], 25 μg/mL penicillin, 25 μg/mL streptomycin, 50 μg/mL uridine and 1 mM pyruvate to densities of 1-2×10^6 cells/mL (exponential stage), at 37° C. in a humidified incubator maintained at 5% CO2.
(§3) Cells were centrifuged at 1400 rpm in a Multifuge 3 s (Heraeus) for 4 min at room temperature, washed in phosphate buffered saline solution, pH 7.3 (PBS) and resuspended in Annexin V binding buffer. Small aliquots (0.5-1×10^6 cells) were transferred to 1.5 mL tubes and spun at 1400 rpm in a Multifuge 3 s (Heraeus) for 4 min. Most supernatant was removed and 5 μL PI and 5 μL FITC-labelled AV was added to the wet pellets which were vortexed. After 30 min in the dark on ice, 500 μl of AV binding buffer was added, the cells were centrifuged for 2 min at 1400 rpm, washed once with AV binding buffer and resuspended in 300 μL of AV binding buffer in FACS tubes. Staining was analyzed by flow cytometry using a Becton Dickinson Canto II FACS analyser using FlowJo (TreeStar) software.

AML-derived HL60 = assay: as above; format: cell-based; conditions: Homo sapiens, HL-60; HL60, 10 μM PXD for 24 h; read-out: [% viable blasts after PXD exposure]/[% viable blasts after 0.1% DMSO exposure]
Method: as §1, §2, §3

ALL-derived MOLT-4 = assay: as above; format: cell-based; conditions: Homo sapiens; MOLT-4, 10 μM PXD for 24 h; read-out: [% viable blasts after PXD exposure]/[% viable blasts after 0.1% DMSO exposure]
Method: as §1, §2, §3

HL60p° = assay: as above; format: cell-based; conditions: Homo sapiens, 10 μM PXD for 24 h, read-out: [% viable blasts after PXD exposure]/[% viable blasts after 0.1% DMSO exposure]
Method: as §1, §2, §3

responder T cells = assay: HLA-mismatched mixed lymphocyte reaction in the presence of PXD; format: cell-based, human; conditions: 10 μM PXD on day 0, analysed day 8
Method: (§4) Mixed lymphocyte reactions were established using unrelated, HLA-mismatched healthy donor blood samples as donor/recipient pairs. Stimulator PBMC were γ-irradiated with 30 Gy as described previously (Zenhausen et al., 2007). Responder PBMC were washed twice in PBS, 5,6-carboxy-succinimidyl-fluorescein-ester (CSFE)-labelled (1.25 μM, Sigma) at room temperature for 5 minutes, and washed twice in PBS/10% FCS. Two hundred thousand stimulator and responder cells were added per well at a 1:1 ratio in a 96 U-well plate in T cell medium. Stimulator and responder cells were also plated alone, and all cells were cultured in a 5% CO2, 37° C. humidified incubator. Viability, CFSE fluorescence and cell surface antigen expression were determined by flow cytometry. Cells were washed twice in FACS buffer (PBS, 2% FCS), and resuspended in 50 μL/5×10^5 cells and analysed on a Becton Dickinson LSRII FACS analyser using FlowJo (TreeStar) software.
The ability of PXD to induce apoptosis in proliferating T cells was further tested in a HLA-mismatched MLR. CFSE labelled responder cells were mixed with HLA-mismatched γ-irradiated stimulator cells in the presence of 0.1% DMSO (control) and 10 μM PXD on day 0. Responder cells were analysed for proliferation (CFSEIO) and viability (AV^−) at day 8 to allow exposure of proliferating responder cells to the drug for several days.

unstimulated T cells = assay: HLA-mismatched MLR after transient exposure of unstimulated T cells to PXD; format: cell-based, human; conditions: 10 μM PXD 24 h, washed, then MLR, FACS 8 days later; control MLR 62.6%
Method: as §4
The inventors next determined whether a transient exposure to PXD affected the ability of unstimulated T cells to respond normally to foreign antigen. Unstimulated T cells were incubated with 10 μM PXD for 24 h, washed twice and stimulated by adding HLA-mismatched γ-irradiated stimulator cells.

Oc1ccc(C2=Cc3ccc(O)cc3OC2)cc1 [PXD, Isoflav-3-en-4′,7-diol]
viability at 24 h, 10 μM [1]: 89 ± 5%
viability at 10 µM (MM-derived U226): 59 ± 6%
viability at 10 µM (AML-derived HL60): 16 ± 5%
viability at 10 µM (ALL-derived MOLT-4): 44 ± 4%
viability at 10 µM (HL60p°): 54 ± 6%
resting responder cell population (CD3+CFSEhiAV−) (responder T cells): present in both control and PXD treated MLR
proliferating allogeneic T cells (CD3+CFSloAV− population) (responder T cells; control MLR 46.5%): 2%
CD3+CFSEloAV− population after transient exposure (unstimulated T cells): 56.2%
